Consider 1 molecule from patent US20180311238A1, “Selective Agonist Of a6 Containing nAChRs” (Saniona A/S, priority 2017, published 2018).

The test system of assay [1] is rat striatal synaptosomes. In words: 3H-dopamine release from rat striatal synaptosomes. The assay is classed as cell-based. To be noted: fraction of release relative to total releasable dopamine. The protocol:
Brains from Sprague-Dawley or Wistar rats (200-400 g) were dissected. Tissue from three rat brains yields enough material for one 96-well plate. Striata were dissected on an ice-chilled platform and placed in 12 ml ice-cold dissection buffer. The tissue was hereafter homogenized for 5-10 sec using a motor driven Teflon pestle in a glass homogenizing vessel. The homogenate was centrifuged at 1000×g for 10 min at 4° C. The resulting supernatant was then re-centrifuged at 12,000×g for 20 min at 4° C. The final crude P2 synatosomal fraction was re-suspended in oxygenated (equilibrated with an atmosphere of 96% O2: 4% CO2 for at least 30 min) Krebs bicarbonate buffer (0.5 ml/100 mg wet tissue weight) containing 100 nM ^3H-dopamine (3.9 μl/100 mg wet tissue weight) and incubated at 37° C. for 10 min. Pargyline was added to the buffer to prevent degradation of ^3H-dopamine.
The ^3H-dopamine loaded synaptosomes were centrifuged at 1000×g for 5 min at room temperature. […]
Following the collection of stimulated release, 75 μl Solvable™ was added to each well and allowed to incubate for at least 45 min to extract remaining ^3H-DA from the sample. […] Radioactivity from each collection was determined by conventional liquid scintillation counting using a Packard Topcount™ counter. […]

The target in the next assay is T1, α6/α3β2β3^V273S receptor (Homo sapiens, UniProt Q15825, V273S).
T1 construct: fused on or other part: P32297 (Neuronal acetylcholine receptor subunit alpha-3) P17787 (Neuronal acetylcholine receptor subunit beta-2)
T1 sequence (Q15825 26-239 limits assumed): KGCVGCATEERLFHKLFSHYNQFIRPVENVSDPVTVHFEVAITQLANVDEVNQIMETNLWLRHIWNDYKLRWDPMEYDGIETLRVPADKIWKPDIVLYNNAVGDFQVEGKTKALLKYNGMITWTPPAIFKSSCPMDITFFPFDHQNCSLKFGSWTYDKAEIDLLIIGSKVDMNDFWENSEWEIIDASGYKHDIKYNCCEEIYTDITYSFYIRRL
T1 sequence (P17787 26-502, further chain): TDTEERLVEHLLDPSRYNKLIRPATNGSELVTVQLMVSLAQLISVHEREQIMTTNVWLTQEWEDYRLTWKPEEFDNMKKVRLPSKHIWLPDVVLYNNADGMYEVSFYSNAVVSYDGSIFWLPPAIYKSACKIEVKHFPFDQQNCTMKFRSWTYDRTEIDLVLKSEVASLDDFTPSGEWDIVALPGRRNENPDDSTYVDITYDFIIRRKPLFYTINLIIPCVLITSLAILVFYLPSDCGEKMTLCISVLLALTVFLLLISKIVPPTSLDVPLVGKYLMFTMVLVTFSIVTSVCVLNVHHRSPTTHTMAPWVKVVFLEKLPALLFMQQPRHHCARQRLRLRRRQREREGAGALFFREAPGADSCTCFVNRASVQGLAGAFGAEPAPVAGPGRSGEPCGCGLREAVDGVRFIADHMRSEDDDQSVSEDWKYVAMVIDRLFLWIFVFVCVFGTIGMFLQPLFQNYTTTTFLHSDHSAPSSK
T1 sequence (Q05901 22-458 V273S, further chain): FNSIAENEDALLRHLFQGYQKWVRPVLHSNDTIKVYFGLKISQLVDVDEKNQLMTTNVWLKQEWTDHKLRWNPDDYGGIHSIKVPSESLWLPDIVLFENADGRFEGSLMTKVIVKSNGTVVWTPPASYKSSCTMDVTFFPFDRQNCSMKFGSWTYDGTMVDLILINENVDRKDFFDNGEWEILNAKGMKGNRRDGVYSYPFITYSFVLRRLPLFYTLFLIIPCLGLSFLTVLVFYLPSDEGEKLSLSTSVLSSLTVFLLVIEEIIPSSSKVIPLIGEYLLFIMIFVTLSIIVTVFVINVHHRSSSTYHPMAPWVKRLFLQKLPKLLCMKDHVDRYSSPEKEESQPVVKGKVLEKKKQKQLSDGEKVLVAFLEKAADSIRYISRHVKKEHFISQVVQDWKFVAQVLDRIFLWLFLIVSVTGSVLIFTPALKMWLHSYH
Nature of the assay: Oocyte two-electrode voltage-clamp electrophysiology, α6/α3β2β3V273S. It counts as cell-based. The following applies: Xenopus laevis oocytes, fitted maximal current relative to acetylcholine; read-out: maximal efficacy compared to ACh. On the procedure: Two-electrode voltage-clamp electrophysiology recordings were done in Xenopus laevis oocytes injected with approximately 25 ng cRNA. After injection, oocytes were incubated at 17° C. for 2-3 days. During measurements, an oocyte was placed in a custom designed recording chamber where compound solutions are added directly to the oocyte via a glass capillary. Compound solutions were prepared on the day of measurement and applied to oocytes with a flowrate of 2.0 ml/min. All datasets were baseline subtracted and responses to individual applications were read as peak current amplitudes. Concentration response relationships describing compound effect at a fixed acetylcholine concentration were fitted to a monophasic Hill-equation. Potency (EC50) and efficacy values (fitted maximal current relative to maximal current of acetylcholine).
Background: Two-electrode voltage clamp holds a large cell at a set potential and records current.

Assay [2] concerns the target T2, nAChRs of the α4β2 subtype (Rattus norvegicus, UniProt P09483+P12390).
T2 construct: from tissue; host or cells: rat cerebral cortex membranes
Nature of the assay: In vitro inhibition of 3H-cytisine binding, rat cortex. To be noted: ligand 3H-cytisine. On the procedure:
The predominant subtype with high affinity for nicotine is comprised of α4 and β2 subunits. Here, the nicotine agonist ^3H-cytisine is used to selectively label nAChRs of the α4β2 subtype.
Preparations were performed at 0-4° C. Cerebral cortices from male Wistar rats (150-250 g) were homogenized for 20 sec in 15 ml Tris-HCl (50 mM, pH 7.4) containing 120 mM NaCl, 5 mM KCl, 1 mM MgCl2 and 2.5 mM CaCl2 using an Ultra-Turrax homogenizer. The homogenate was centrifuged at 27,000×g for 10 min. The supernatant was discarded and the pellet is re-suspended in fresh buffer and centrifuged a second time. The final pellet was re-suspended in fresh buffer (35 ml per g of original tissue) and used for binding assays.
Aliquots of 500 μl homogenate were added to 25 μl of test solution and 25 μl of ^3H-cytisine (1 nM, final concentration), mixed and incubated for 90 min at 0-4° C. Non-specific binding (5-10% of total binding) was determined using 100 μM (−)-nicotine. […]
Binding was terminated by rapid filtration onto Whatman GF/B glass fibre filters using a Brandel Cell Harvester, followed by seven washes with 2 ml ice-cold buffer. The amount of radioactivity on the filters was determined by conventional liquid scintillation counting using a Tri-Carb™ counter (PerkinElmer Life and Analytical Sciences).
Specific binding was calculated as total binding minus non-specific binding.

T2 sequence (P09483 31-630): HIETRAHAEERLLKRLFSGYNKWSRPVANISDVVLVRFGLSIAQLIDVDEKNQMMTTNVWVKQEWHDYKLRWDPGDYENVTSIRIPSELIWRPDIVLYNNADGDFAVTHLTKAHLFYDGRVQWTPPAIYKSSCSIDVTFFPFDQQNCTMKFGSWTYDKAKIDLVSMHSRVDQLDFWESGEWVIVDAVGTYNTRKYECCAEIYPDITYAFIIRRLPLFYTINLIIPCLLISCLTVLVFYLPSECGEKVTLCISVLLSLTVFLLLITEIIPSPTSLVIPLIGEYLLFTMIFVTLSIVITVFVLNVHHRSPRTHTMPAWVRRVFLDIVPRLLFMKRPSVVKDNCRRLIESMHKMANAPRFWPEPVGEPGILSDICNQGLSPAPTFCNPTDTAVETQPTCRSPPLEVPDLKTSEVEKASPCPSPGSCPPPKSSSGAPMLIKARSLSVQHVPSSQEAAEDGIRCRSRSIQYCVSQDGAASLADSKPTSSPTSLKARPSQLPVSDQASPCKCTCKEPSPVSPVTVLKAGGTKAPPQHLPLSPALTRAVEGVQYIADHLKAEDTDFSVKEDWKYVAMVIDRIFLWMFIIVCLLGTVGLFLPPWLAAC
T2 sequence (P12390 25-500): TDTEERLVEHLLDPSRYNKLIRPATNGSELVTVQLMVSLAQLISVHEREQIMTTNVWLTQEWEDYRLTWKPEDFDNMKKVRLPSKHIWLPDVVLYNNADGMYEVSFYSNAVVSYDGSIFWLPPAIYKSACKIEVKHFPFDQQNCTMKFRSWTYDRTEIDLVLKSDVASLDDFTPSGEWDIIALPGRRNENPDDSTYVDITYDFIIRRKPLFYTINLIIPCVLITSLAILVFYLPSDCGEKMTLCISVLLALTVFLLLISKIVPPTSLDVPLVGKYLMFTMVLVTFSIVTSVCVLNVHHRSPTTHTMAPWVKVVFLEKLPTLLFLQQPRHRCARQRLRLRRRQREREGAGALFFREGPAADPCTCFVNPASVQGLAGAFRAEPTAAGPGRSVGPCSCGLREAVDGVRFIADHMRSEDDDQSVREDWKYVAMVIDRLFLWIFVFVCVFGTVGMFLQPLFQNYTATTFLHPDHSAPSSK

For orientation: Ki means a measure of affinity in units of concentration, obtained from inhibition or displacement. As for `CN1C2CCCC1CN(c1cccnc1)C2` [9-methyl-3-pyridin-3-yl-3,9-diaza-bicyclo[3.3.1]nonane], the 3H-dopamine release result in assay [1] is reported as “concentration-dependently stimulates”. The Emax at α6/α3β2β3^V273S receptor stood at 27%. In assay [2], the inhibition constant (Ki) amounted to 3.1 nM.
